Measurements reported in patent publication US20240124442A1, “TRICYCLIC-AMIDO-BICYCLIC PRMT5 INHIBITORS” (AMGEN INC., priority 2021, published 2024).

Tested on: HCT116 MTAP null cells
Experiment: HCT116 MTAP null cell line proliferation / cell viability (CellTiter-Glo, 6 days)
Format: cell-based
Settings: 144 h; HCT116 MTAP null cells, 6 days treatment, CellTiter-Glo cell viability; read-out: HCT-116 MTAP null IC50
Procedure, shortened: (§1)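 Isogenic HCT116 parent and MTAP-knockout cells in RPMI 1640 + 10% FBS, plated overnight, then exposed to compound for 6 days (37 °C, 5% CO2). Viability by CellTiter-Glo luminescence. Dilutions: 8–9 points from 1 or 10 μM (1:3), or 22 points from 10 or 50 μM (1:2); IC50 by 4-parameter or Hill −1 fit.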

Going from CN(C(=O)c1cc2c3c(c(N)nc2cc1F)COC3)[C@@H]1CCOc2cc(C(F)(F)F)ccc21 (single isomer, unassigned) [Example 401] to CN(C(=O)c1cc2c3c(c(N)nc2cc1Cl)COC3)[C@@H]1COCc2c1ccc(C(F)(F)F)c2F (single isomer, unassigned) [Example 404], the IC50 falls from 148 nM to 9 nM (16-fold). The second is the more potent here.

First: CN(C(=O)c1cc2c3c(c(N)nc2cc1Cl)COC3)[C@@H]1COCc2nc(C#N)ccc21 (single isomer, unassigned) [Example 402]
Second: CN(C(=O)c1cc2c3c(c(N)nc2cc1Cl)COC3)[C@H]1COCc2nc(C#N)ccc21 (single isomer, unassigned) [Example 403]
The IC50 of the first is 58-fold lower: 8 nM for the first, 463 nM for the second.

Compared with CN(C(=O)c1cc2c3c(c(N)nc2cc1Cl)COC3)[C@H]1COCc2c1ccc(C(F)(F)F)c2F (single isomer, unassigned) [Example 405], C[C@H]1OC[C@@H](N(C)C(=O)c2cc3c4c(c(N)nc3nc2Cl)COC4)c2ccc(C(F)(F)F)cc21 (single isomer, unassigned) [Example 406] is 63-fold lower in IC50: 696 nM for the first, 11 nM for the second.

Going from CN(C(=O)c1ccc2nc(N)c3cnn(C)c3c2c1)[C@@H]1COCc2c(F)cncc21 (single isomer, unassigned) [Example 407] to CN(C(=O)c1ccc2nc(N)c3cnn(C)c3c2c1)[C@@H]1COCc2c1ccc(F)c2F (single isomer, unassigned) [Example 409], the IC50 falls from 554 nM to 48 nM (12-fold). The second is the more potent here.

Going from COc1ccc2c(c1)COC[C@H]2N(C)C(=O)c1ccc2nc(N)c3cnn(C)c3c2c1 (single isomer, unassigned) [Example 408] to CN(C(=O)c1ccc2nc(N)c3cnn(C)c3c2c1)[C@@H]1COCc2cc(Br)ccc21 (single isomer, unassigned) [Example 412], the IC50 falls from 24 nM to 4 nM (6-fold).

Going from CCOc1ccc2c(n1)COC[C@H]2N(C)C(=O)c1ccc2nc(N)c3cnn(C)c3c2c1 (single isomer, unassigned) [Example 410] to CN(C(=O)c1ccc2nc(N)c3cnn(C)c3c2c1)[C@@H]1COCc2nc(Br)ccc21 (single isomer, unassigned) [Example 418], the IC50 falls from 21 nM to 3 nM (7-fold). The second is the more potent here.

First: CN(C(=O)c1ccc2nc(N)c3cnn(C)c3c2c1)[C@@H]1CCCc2nc(C(F)(F)F)ccc21 (single isomer, unassigned) [Example 411]
Second: C[C@H]1OC[C@@H](N(C)C(=O)c2ccc3nc(N)c4cnn(C)c4c3c2)c2ccc(C(F)(F)F)cc21 (single isomer, unassigned) [Example 414]
The IC50 of the first is 83-fold higher: 83 nM for the first, 1 nM for the second.

Compared with CN(C(=O)c1ccc2nc(N)c3cnn(C)c3c2c1)[C@H]1COCc2cc(Br)ccc21 (single isomer, unassigned) [Example 413], CN(C(=O)c1ccc2nc(N)c3cnn(C)c3c2c1)[C@H]1COCc2nc(Br)ccc21 (single isomer, unassigned) [Example 419] is 1.5-fold higher in IC50: 360 nM for the first, 545 nM for the second.

Going from C[C@@H]1OC[C@H](N(C)C(=O)c2ccc3nc(N)c4cnn(C)c4c3c2)c2ccc(C(F)(F)F)cc21 (single isomer, unassigned) [Example 415] to CN(C(=O)c1ccc2nc(N)c3cnn(C)c3c2c1)[C@@H]1COCc2c1ccc(C(F)(F)F)c2F (single isomer, unassigned) [Example 416], the IC50 falls from 78 nM to 6 nM (13-fold).

Going from CN(C(=O)c1ccc2nc(N)c3cnn(C)c3c2c1)[C@H]1COCc2c1ccc(C(F)(F)F)c2F (single isomer, unassigned) [Example 417] to CN(C(=O)c1cc2c(cn1)nc(N)c1cnn(C)c12)[C@@H]1COCc2c1ccc(C(F)(F)F)c2F (single isomer, unassigned) [Example 422], the IC50 falls from 841 nM to 10 nM (84-fold). The second is the more potent here.

Going from COc1ccc2c(c1)COC[C@H]2N(C)C(=O)c1cc2c(cn1)nc(N)c1cnn(C)c12 (single isomer, unassigned) [Example 420] to COc1ccc2c(c1)COC[C@@H]2N(C)C(=O)c1cc2c(cn1)nc(N)c1cnn(C)c12 (single isomer, unassigned) [Example 421], the IC50 rises from 15 nM to 792 nM (53-fold). The first is the more potent here.

CN(C(=O)c1cc2c(cc1F)nc(N)c1cnn(C)c12)[C@@H]1COCc2ncccc21 (single isomer, unassigned) [Example 423] showed an IC50 of 39 nM.

Tested on: HCT116 WT cells
Experiment: HCT116 WT (parent) cell line proliferation / cell viability (CellTiter-Glo, 6 days)
Format: cell-based
Settings: Homo sapiens, HCT-116, 144 h, 6 days treatment
Procedure, shortened: as §1

First: CN(C(=O)c1cc2c3c(c(N)nc2cc1F)COC3)[C@@H]1CCOc2cc(C(F)(F)F)ccc21 (single isomer, unassigned) [Example 401]
Second: CN(C(=O)c1cc2c3c(c(N)nc2cc1Cl)COC3)[C@@H]1COCc2c1ccc(C(F)(F)F)c2F (single isomer, unassigned) [Example 404]
The IC50 of the first is 26-fold higher: 6570 nM for the first, 250 nM for the second.

First: CN(C(=O)c1cc2c3c(c(N)nc2cc1Cl)COC3)[C@@H]1COCc2nc(C#N)ccc21 (single isomer, unassigned) [Example 402]
Second: CN(C(=O)c1cc2c3c(c(N)nc2cc1Cl)COC3)[C@H]1COCc2nc(C#N)ccc21 (single isomer, unassigned) [Example 403]
The IC50 of the first is 59-fold lower: 436 nM for the first, 25800 nM for the second.

Going from CN(C(=O)c1cc2c3c(c(N)nc2cc1Cl)COC3)[C@H]1COCc2c1ccc(C(F)(F)F)c2F (single isomer, unassigned) [Example 405] to C[C@H]1OC[C@@H](N(C)C(=O)c2cc3c4c(c(N)nc3nc2Cl)COC4)c2ccc(C(F)(F)F)cc21 (single isomer, unassigned) [Example 406], the IC50 falls from 14700 nM to 322 nM (46-fold). The second is the more potent here.

Compared with CN(C(=O)c1ccc2nc(N)c3cnn(C)c3c2c1)[C@@H]1COCc2c(F)cncc21 (single isomer, unassigned) [Example 407], CN(C(=O)c1ccc2nc(N)c3cnn(C)c3c2c1)[C@@H]1COCc2c1ccc(F)c2F (single isomer, unassigned) [Example 409] is 6-fold lower in IC50: 23300 nM for the first, 3910 nM for the second.

Compared with COc1ccc2c(c1)COC[C@H]2N(C)C(=O)c1ccc2nc(N)c3cnn(C)c3c2c1 (single isomer, unassigned) [Example 408], CN(C(=O)c1ccc2nc(N)c3cnn(C)c3c2c1)[C@@H]1COCc2cc(Br)ccc21 (single isomer, unassigned) [Example 412] is 7.5-fold lower in IC50: 1710 nM for the first, 228 nM for the second.

Going from CCOc1ccc2c(n1)COC[C@H]2N(C)C(=O)c1ccc2nc(N)c3cnn(C)c3c2c1 (single isomer, unassigned) [Example 410] to CN(C(=O)c1ccc2nc(N)c3cnn(C)c3c2c1)[C@@H]1COCc2nc(Br)ccc21 (single isomer, unassigned) [Example 418], the IC50 falls from 1470 nM to 421 nM (3.5-fold). The second is the more potent here.

Going from CN(C(=O)c1ccc2nc(N)c3cnn(C)c3c2c1)[C@@H]1CCCc2nc(C(F)(F)F)ccc21 (single isomer, unassigned) [Example 411] to C[C@H]1OC[C@@H](N(C)C(=O)c2ccc3nc(N)c4cnn(C)c4c3c2)c2ccc(C(F)(F)F)cc21 (single isomer, unassigned) [Example 414], the IC50 falls from 6270 nM to 19 nM (330-fold).

First: CN(C(=O)c1ccc2nc(N)c3cnn(C)c3c2c1)[C@H]1COCc2cc(Br)ccc21 (single isomer, unassigned) [Example 413]
Second: CN(C(=O)c1ccc2nc(N)c3cnn(C)c3c2c1)[C@H]1COCc2nc(Br)ccc21 (single isomer, unassigned) [Example 419]
The IC50 of the first is 3.3-fold lower: 7990 nM for the first, 26400 nM for the second.

First: C[C@@H]1OC[C@H](N(C)C(=O)c2ccc3nc(N)c4cnn(C)c4c3c2)c2ccc(C(F)(F)F)cc21 (single isomer, unassigned) [Example 415]
Second: CN(C(=O)c1ccc2nc(N)c3cnn(C)c3c2c1)[C@@H]1COCc2c1ccc(C(F)(F)F)c2F (single isomer, unassigned) [Example 416]
The IC50 of the first is 6.4-fold higher: 2630 nM for the first, 414 nM for the second. The second is the more potent here.

Compared with CN(C(=O)c1ccc2nc(N)c3cnn(C)c3c2c1)[C@H]1COCc2c1ccc(C(F)(F)F)c2F (single isomer, unassigned) [Example 417], CN(C(=O)c1cc2c(cn1)nc(N)c1cnn(C)c12)[C@@H]1COCc2c1ccc(C(F)(F)F)c2F (single isomer, unassigned) [Example 422] is 25-fold lower in IC50: 6100 nM for the first, 241 nM for the second. The second is the more potent here.

First: COc1ccc2c(c1)COC[C@H]2N(C)C(=O)c1cc2c(cn1)nc(N)c1cnn(C)c12 (single isomer, unassigned) [Example 420]
Second: COc1ccc2c(c1)COC[C@@H]2N(C)C(=O)c1cc2c(cn1)nc(N)c1cnn(C)c12 (single isomer, unassigned) [Example 421]
The IC50 of the first is 80-fold lower: 439 nM for the first, 35200 nM for the second. The first is the more potent here.

Compound CN(C(=O)c1cc2c(cc1F)nc(N)c1cnn(C)c12)[C@@H]1COCc2ncccc21 (single isomer, unassigned) [Example 423] has an IC50 of 1610 nM.
